From patent US12134620B2 (ARAXES PHARMA LLC, priority 2018, dated 2024)

Molecular target: T1, KRAS G12C 1-169, his-tagged protein, GDP-loaded (Homo sapiens, UniProt P01116, G12C)
T1 construct: KRAS G12C 1-169, his-tagged protein, GDP-loaded; His tag
Assay: Biochemical assay: covalent modification of KRAS G12C, analysed by mass spectrometry (RapidFire/TOF or Q-Exactive); also: time not given here
Assay type: binding
Settings: Modification activity, modification percentage from MS peak intensities
How it was run: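 GDP-loaded His-tagged KRAS G12C 1-169 (2 μM or 0.5 μM in 20 mM Hepes, 150 mM NaCl, 1 mM MgCl2) reacted with compound at 32 μM or 8 μM final (2% DMSO) for a set time, then quenched with formic acid. Percent covalent modification from deconvoluted intact-protein MS peak intensities (RapidFire/TOF or LC-Q Exactive).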

C=CC(=O)N1CC2(CCN(c3nc(-c4c(C)ccc5[nH]ncc45)ncc3C#N)C2)C1 [Compound I-141, 4-(2-acryloyl-2,6-diazaspiro[3.4]octan-6-yl)-2-(5-methyl-1H-indazol-4-yl)pyrimidine-5-carbonitrile]
Binding %: + (+ indicates binding activity greater than 0% and up to 50%)

C=CC(=O)N1CC2(CCN(c3nc(N4CCC[C@@H](CO)C4)nc(-c4c(C)ccc5[nH]ncc45)c3C#N)C2)C1 [Compound I-212, 4-(2-acryloyl-2,6-diazaspiro[3.4]octan-6-yl)-2-((R)-3-(hydroxymethyl)piper-idin-1-yl)-6-(5-methyl-1H-indazol-4-yl)pyrimidine-5-carbontrile]
Binding %: ++ (++ indicates binding activity from 50 to 85%)

C/C=C/C(=O)N1CC2(CCN(c3nc(OC[C@@H]4CCCN4C)nc(-c4c(C)ccc5[nH]ncc45)c3C#N)C2)C1 [Compound I-105, 4-(2-((E)-but-2-enoyl)-2,6-diazaspiro[3.4]octan-6-yl)-6-(5-methyl-1H-indazol-4-yl)-2-(((S)-1-methylpyrrolidin-2-yl)methoxy)pyrimidine-5-carbonitrile]
Binding %: + (+ indicates binding activity greater than 0% and up to 50%)

C=CC(=O)N1CC2(CCN(c3nc(OCc4cc(F)cc(F)c4)nc(-c4c(C)ccc5[nH]ncc45)c3C#N)C2)C1 [Compound I-152]
Binding %: ++ (++ indicates binding activity from 50 to 85%)

C=CC(=O)N1CC2(CCN(c3nc(N4CCC[C@H](CO)C4)nc(-c4c(C)ccc5[nH]ncc45)c3C#N)C2)C1 [Compound I-211, 4-(2-acryloyl-2,6-diazaspiro[3.4]octan-6-yl)-2-((S)-3-(hydroxymethyl)piperi-din-1-yl)-6-(5-methyl-1H-indazol-4-yl)pyrimidine-5-carbonitrile]
Binding %: ++ (++ indicates binding activity from 50 to 85%)

C=CC(=O)N1CC2(CCN(c3c(OCCCN(C)C)ncc(-c4c(C)ccc5[nH]ncc45)c3C#N)C2)C1 [Compound I-218, 3-(2-acryloyl-2,6-diazaspiro[3.4]octan-6-yl)-2-(3-(dimethylamino)pro-poxy)-5-(5-methyl-1H-indazol-4-yl)isonicotinonitrile]
Binding %: ++ (++ indicates binding activity from 50 to 85%)

C=CC(=O)N1CC2(CCN(c3nc(OCC(=O)N4CCCC4)nc(-c4c(C)ccc5[nH]ncc45)c3C#N)C2)C1 [Compound I-127, 4-(2-acryloyl-2,6-diazaspiro[3.4]octan-6-yl)-6-(5-methyl-1H-indazol-4-yl)-2-(2-oxo-2-(pyrrolidin-1-yl)ethoxy)pyrimidine-5-carbonitrile]
Binding %: + (+ indicates binding activity greater than 0% and up to 50%)

C=CC(=O)N1CC2(CCN(c3nc(OC[C@@H]4CCCN4C)nc(-c4c(C)ccc5cnn(C6CC6)c45)c3C#N)C2)C1 [Compound I-103, 4-(2-acryloyl-2,6-diazaspiro[3.4]octan-6-yl)-6-(1-cyclopropyl-6-methyl-1H-indazol-7-yl)-2-(((S)-1-methylpyrrolidin-2-yl)methoxy)pyrimidine-5-carbonitrile]
Binding %: + (+ indicates binding activity greater than 0% and up to 50%)

C=CC(=O)N1CC2(CCN(c3nc(N4CCC[C@H]4CO)nc(-c4c(C)ccc5[nH]ncc45)c3C#N)C2)C1 [Compound I-210, 4-(2-acryloyl-2,6-diazaspiro[3.4]octan-6-yl)-2-((S)-2-(hydroxymethyl)pyrro-lidin-1-yl)-6-(5-methyl-1H-indazol-4-yl)pyrimidin-5-carbonitrile]
Binding %: + (+ indicates binding activity greater than 0% and up to 50%)

C=CC(=O)N1CC2(CCN(c3ncnc(-c4c(C)ccc5[nH]ncc45)n3)C2)C1 [Compound I-280, 1-(6-(4-(5-methyl-1H-indazol-4-yl)-1,3,5-triazin-2-yl)-2,6-diazaspiro[3.4]octan-2-yl)prop-2-en-1-one]
Binding %: + (+ indicates binding activity greater than 0% and up to 50%)

C=CC(=O)N1CC2(CCN(c3nc(N4CCC(N5CCN(C6CC6)CC5)CC4)nc(-c4c(C)ccc5[nH]ncc45)c3C#N)C2)C1 [Compound I-217, 4-(2-acryloyl-2,6-diazaspiro[3.4]octan-6-yl)-2-(4-(4-cyclopropylpiperazin-1-yl)piperidin-1-yl)-6-(5-methyl-1H-indazol-4-yl)pyrimidine-5-carbonitrile]
Binding %: ++ (++ indicates binding activity from 50 to 85%)

C=CC(=O)N1CC2(CCN(c3nc(OC[C@@H]4CCCN4C)nc(-c4cc(-c5cn[nH]c5)ccc4F)c3C#N)C2)C1 [Compound I-115, (S)-4-(2-acryloyl-2,6-diazaspiro[3.4]octan-6-yl)-6-(2-fluoro-5-(1H-pyrazol-4-yl)phenyl)-2-((1-methylpyrrolidin-2-yl)methoxy)pyrimidine-5-carbonitrile]
Binding %: + (+ indicates binding activity greater than 0% and up to 50%)

C=CC(=O)N1CC2(CCN(c3nc(-c4c(C)ccc5[nH]ncc45)c(C#N)c(N4CC(N(C)C)C4)n3)C2)C1 [Compound I-147, 2-(2-acryloyl-2,6-diazaspiro[3.4]octan-6-yl)-4-(3-(dimethylamino)azeti-din-1-yl)-6-(5-methyl-1H-indazol-4-yl)pyrimidine-5-carbonitrile]
Binding %: + (+ indicates binding activity greater than 0% and up to 50%)

C=CC(=O)N1CC2(CCN(c3ncnc(-c4cc5[nH]ncc5cc4C)c3C#N)C2)C1 [Compound I-235, 4-(2-acryloyl-2,6-diazaspiro[3.4]octan-6-yl)-6-(5-methyl-1H-indazol-6-yl)pyrimidine-5-carbonitrile]
Binding %: + (+ indicates binding activity greater than 0% and up to 50%)

CC#CC(=O)N1CC2(CCN(c3cncc(-c4c(C)ccc5[nH]ncc45)c3C#N)C2)C1 [Compound I-272, 3-(2-(but-2-ynoyl)-2,6-diazaspiro[3.4]octan-6-yl)-5-(5-methyl-1H-indazol-4-yl)isonicotinonitrile]
Binding %: + (+ indicates binding activity greater than 0% and up to 50%)

C=CC(=O)N1CC2(CCN(c3cncc(-c4c(C)ccc5cnn(C)c45)c3C#N)CC2)C1 [Compound I-265, 3-(2-acryloyl-2,7-diazaspiro[3.5]nonan-7-yl)-5-(1,6-dimethyl-1H-indazol-7-yl)isonicotinonitrile]
Binding %: + (+ indicates binding activity greater than 0% and up to 50%)

C=CC(=O)N1CC2(CC(=O)N(c3nc(N4CCOCC4)nc(-c4c(O)cccc4F)c3C#N)C2)C1 [Compound I-177, 4-(2-acryloyl-7-oxo-2,6-diazaspiro[3.4]octan-6-yl)-6-(2-fluoro-6-hydroxyphenyl)-2-morpholinopyrimidine-5-carbonitrile]
Binding %: + (+ indicates binding activity greater than 0% and up to 50%)

C=CC(=O)N1CC2(CCN(c3ncnc(-c4c(C)ccc5[nH]ncc45)c3C#N)C2)C1 [Compound I-231, 4-(2-acryloyl-2,6-diazaspiro[3.4]octan-6-yl)-6-(5-methyl-1H-indazol-4-yl)pyrimidine-5-carbonitrile]
Binding %: + (+ indicates binding activity greater than 0% and up to 50%)

C=CC(=O)N1CC2(CCN(c3nc(OC[C@@H]4CN(C)CCO4)nc(-c4c(C)ccc5[nH]ncc45)c3C#N)C2)C1 [Compound I-81, 4-(2-acryloyl-2,6-diazaspiro[3.4]octan-6-yl)-6-(5-methyl-1H-indazol-4-yl)-2-(((S)-4-methylmorpholin-2-yl)methoxy)pyrimidine-5-carbonitrile]
Binding %: +++ (+++ indicates binding activity greater than 85%)

C=CC(=O)N1CC2(CCN(c3nc(N4CCC(N5CCN(C)[C@@H](C)C5)CC4)nc(-c4c(C)ccc5cnn(C)c45)c3C#N)C2)C1 [Compound I-193, 4-(2-acryloyl-2,6-diazaspiro[3.4]octan-6-yl)-6-(1,6-dimethyl-1H-indazol-7-yl)-2-(4-((S)-3,4-dimethylpiperazin-1-yl)piperidin-1-yl)pyrimidine-5-carbonitrile]
Binding %: +++ (+++ indicates binding activity greater than 85%)

C=CC(=O)N1CC2(CCN(c3ncnc(-c4c(C)ccc5cn[nH]c45)c3C#N)CC2)C1 [Compound I-237, 4-(2-acryloyl-2,7-diazaspiro[3.5]ononan-7-yl)-6-(6-methyl-1H-indazol-7-yl)pyrimidine-5-carbonitrile]
Binding %: + (+ indicates binding activity greater than 0% and up to 50%)

CC#CC(=O)N1CC2(CCN(c3nc(OC[C@@H]4CCCN4C)nc(-c4c(C)ccc5[nH]ncc45)c3C#N)C2)C1 [Compound I-104, 4-(2-(but-2-ynoyl)-2,6-diazaspiro[3.4]octan-6-yl)-6-(5-methyl-1H-indazol-4-yl)-2-(((S)-1-methylpyrrolidin-2-yl)methoxy)pyrimidine-5-carbontrile]
Binding %: + (+ indicates binding activity greater than 0% and up to 50%)

C=CC(=O)N1CC2(CCN(c3ncnc(-c4c(C)ccc5[nH]ncc45)c3CC)C2)C1 [Compound I-262, 1-(6-(5-ethyl-6-(5-methyl-1H-indazol-4-yl)pyrimidin-4-yl)-2,6-diazaspiro[3.4]octan-2-yl)prop-2-en-1-one]
Binding %: + (+ indicates binding activity greater than 0% and up to 50%)

C=CC(=O)N1CC2(CCN(c3nc(N4CCOCC4)nc(-c4c(C)ccc5[nH]nc(C6CC6)c45)c3C#N)C2)C1 [Compound I-206, 4-(2-acryloyl-2,6-diazaspiro[3.4]octan-6-yl)-6-(3-cyclopropyl-5-methyl-1H-indazol-4-yl)-2-morpholinopyrimidine-5-carbonitrile]
Binding %: + (+ indicates binding activity greater than 0% and up to 50%)

C=CC(=O)N1CC2(CCN(c3nc(OCCN4CCCC4=O)nc(-c4c(C)ccc5[nH]ncc45)c3C#N)C2)C1 [Compound I-20, 4-(2-acryloyl-2,6-diazaspiro[3.4]octan-6-yl)-6-(5-methyl-1H-indazol-4-yl)-2-(2-(2-oxopyrrolidin-1-yl)ethoxy)pyrimidine-5-carbonitrile]
Binding %: ++ (++ indicates binding activity from 50 to 85%)
